The target in test [1] is T1, F508delCFTR in primary hBE cells with F508del/F508del CFTR mutation (Homo sapiens, UniProt P13569, DEL508-508).
T1 construct: cells isolated from CF patients with the homozygous mutation; endogenous in cells; host or cells: primary human bronchial epithelial (hBE) cells from F508del/F508del CF patients
The test is described as follows: Transepithelial Clamp Circuit on Human Bronchial Epithelial Cells Conductance Assay (hBE-TECC). In kind it is cell-based. As to conditions: for pEC50: primary hBE cells F508del/F508del, 18-24 hours at 37° C., equivalent short circuit current, 6 concentrations; for Maximum % activity (%): relative to positive control (3 μM) coupled with control potentiator. In outline:
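Primary F508del/F508del hBE cells grown 35 days at air-liquid interface, treated basolaterally with correctors 18-24 h at 37° C. Ieq (Vt/Rt) at 36.5° C, pH 7.4, after benzamil, forskolin 10 μM, control potentiator, bumetanide; 6 concentrations normalized to DMSO and 3 μM positive-control corrector, EC50 by 4-parameter fit.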

Test [2] addresses T2, F508delCFTR cell surface expression in CFBE41o-F508delCFTR-HRP cells (Homo sapiens, UniProt P13569, DEL508-508).
T2 construct: fused on or other part: Horseradish peroxidase (HRP) reporter inserted in the fourth exofacial (extracellular) loop of CFTR; expression is doxycycline-inducible
The test is described as follows: Cell Surface Expression-Horse Radish Peroxidase (CSE-HRP) Assay. As to conditions: for pEC50: CFBE41o-F508delCFTR-HRP cells, 18-24 hours at 33° C., 8-point curve, highest concentration 20 μM; for Maximum % activity (%): maximum at any tested concentration, normalized to on-plate positive control (3 μM). It counts as cell-based. An outline of the steps:
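CFBE41o- cells with HRP-tagged F508delCFTR, expression induced by 0.5 μg/mL doxycycline for 72 h at 37 °C, then compound for 18-24 h at 33 °C (8-point, 3-fold, top 20 μM). Surface HRP measured by luminol luminescence; % activity normalised to 3 μM positive-control corrector; EC50 from variable-slope sigmoidal fit, three replicate plates.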

pEC50: −log10 of the molar value.

T1 sequence (P13569 with tags, fused parts or gaps DEL508-508): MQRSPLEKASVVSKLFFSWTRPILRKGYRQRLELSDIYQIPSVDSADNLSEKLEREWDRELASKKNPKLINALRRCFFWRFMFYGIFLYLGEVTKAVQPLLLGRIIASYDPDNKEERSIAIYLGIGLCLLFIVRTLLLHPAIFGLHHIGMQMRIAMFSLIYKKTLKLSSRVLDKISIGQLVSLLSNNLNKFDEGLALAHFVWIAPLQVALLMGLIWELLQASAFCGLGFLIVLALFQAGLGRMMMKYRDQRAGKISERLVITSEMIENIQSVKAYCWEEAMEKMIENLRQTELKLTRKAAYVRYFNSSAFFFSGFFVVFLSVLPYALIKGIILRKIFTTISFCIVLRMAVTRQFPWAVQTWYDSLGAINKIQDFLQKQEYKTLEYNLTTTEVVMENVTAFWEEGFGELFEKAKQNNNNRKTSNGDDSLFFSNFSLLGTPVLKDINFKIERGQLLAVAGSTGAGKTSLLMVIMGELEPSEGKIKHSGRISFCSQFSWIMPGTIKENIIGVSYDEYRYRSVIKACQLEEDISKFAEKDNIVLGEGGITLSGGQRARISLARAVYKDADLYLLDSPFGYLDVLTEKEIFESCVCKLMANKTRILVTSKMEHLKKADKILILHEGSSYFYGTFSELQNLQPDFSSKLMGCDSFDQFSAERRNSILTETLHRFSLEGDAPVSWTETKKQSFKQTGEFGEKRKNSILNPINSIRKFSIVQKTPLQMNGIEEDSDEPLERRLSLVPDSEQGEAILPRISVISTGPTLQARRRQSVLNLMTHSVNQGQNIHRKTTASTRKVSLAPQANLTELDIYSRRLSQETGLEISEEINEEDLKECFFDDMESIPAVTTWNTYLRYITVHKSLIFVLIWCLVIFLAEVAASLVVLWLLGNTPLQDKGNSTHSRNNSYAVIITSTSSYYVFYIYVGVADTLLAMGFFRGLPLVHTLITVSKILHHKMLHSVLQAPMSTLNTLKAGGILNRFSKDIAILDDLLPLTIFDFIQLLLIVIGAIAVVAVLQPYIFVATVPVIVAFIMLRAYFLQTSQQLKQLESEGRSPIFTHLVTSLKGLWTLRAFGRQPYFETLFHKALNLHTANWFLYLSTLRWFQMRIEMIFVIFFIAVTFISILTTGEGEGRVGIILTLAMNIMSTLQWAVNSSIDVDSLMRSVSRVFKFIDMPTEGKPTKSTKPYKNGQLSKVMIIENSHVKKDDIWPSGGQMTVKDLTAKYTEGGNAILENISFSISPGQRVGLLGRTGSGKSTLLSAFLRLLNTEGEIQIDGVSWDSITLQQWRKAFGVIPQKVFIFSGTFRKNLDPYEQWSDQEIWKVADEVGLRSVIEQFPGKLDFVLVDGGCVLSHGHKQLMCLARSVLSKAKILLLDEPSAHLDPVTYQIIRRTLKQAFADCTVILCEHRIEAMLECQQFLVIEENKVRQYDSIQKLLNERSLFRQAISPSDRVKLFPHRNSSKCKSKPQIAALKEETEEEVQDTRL
T2 sequence (P13569 with tags, fused parts or gaps DEL508-508 limits assumed): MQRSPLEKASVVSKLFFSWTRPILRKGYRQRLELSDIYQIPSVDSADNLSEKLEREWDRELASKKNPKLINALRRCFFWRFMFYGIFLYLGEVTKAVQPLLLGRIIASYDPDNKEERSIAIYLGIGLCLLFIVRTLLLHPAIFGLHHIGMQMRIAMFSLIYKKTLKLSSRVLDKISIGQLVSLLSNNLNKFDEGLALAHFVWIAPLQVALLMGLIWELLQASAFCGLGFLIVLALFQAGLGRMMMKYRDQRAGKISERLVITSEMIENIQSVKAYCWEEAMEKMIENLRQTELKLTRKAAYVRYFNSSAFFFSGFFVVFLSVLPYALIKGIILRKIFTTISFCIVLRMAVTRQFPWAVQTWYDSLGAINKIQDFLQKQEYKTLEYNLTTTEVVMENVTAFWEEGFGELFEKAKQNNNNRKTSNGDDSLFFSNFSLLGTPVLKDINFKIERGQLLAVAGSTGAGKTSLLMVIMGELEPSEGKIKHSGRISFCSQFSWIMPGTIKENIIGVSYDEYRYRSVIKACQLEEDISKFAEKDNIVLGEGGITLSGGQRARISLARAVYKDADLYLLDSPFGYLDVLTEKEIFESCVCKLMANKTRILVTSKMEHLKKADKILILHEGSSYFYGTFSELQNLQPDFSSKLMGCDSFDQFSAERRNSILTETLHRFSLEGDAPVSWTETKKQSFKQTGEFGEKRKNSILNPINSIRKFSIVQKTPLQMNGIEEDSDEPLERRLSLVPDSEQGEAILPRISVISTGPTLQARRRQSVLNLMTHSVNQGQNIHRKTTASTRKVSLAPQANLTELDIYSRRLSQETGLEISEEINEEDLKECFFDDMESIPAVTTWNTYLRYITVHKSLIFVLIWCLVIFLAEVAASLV
T2 sequence (P13569 919-1480 limits assumed, stated change not applied): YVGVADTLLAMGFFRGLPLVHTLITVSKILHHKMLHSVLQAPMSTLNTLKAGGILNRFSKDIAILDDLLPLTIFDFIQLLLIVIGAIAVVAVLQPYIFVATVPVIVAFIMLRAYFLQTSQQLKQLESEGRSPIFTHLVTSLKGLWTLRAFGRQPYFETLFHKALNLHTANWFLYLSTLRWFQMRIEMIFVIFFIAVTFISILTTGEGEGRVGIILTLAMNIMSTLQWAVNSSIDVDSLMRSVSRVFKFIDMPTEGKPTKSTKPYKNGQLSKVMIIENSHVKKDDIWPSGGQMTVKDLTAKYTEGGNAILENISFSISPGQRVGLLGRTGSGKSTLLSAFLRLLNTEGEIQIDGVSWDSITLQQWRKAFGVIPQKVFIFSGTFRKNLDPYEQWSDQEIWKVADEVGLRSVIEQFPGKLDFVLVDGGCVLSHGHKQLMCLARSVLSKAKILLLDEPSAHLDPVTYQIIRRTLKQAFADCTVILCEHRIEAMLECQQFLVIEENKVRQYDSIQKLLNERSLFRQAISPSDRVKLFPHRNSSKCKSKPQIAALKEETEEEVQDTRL

On to `COc1ccc2c(c1)O[C@@H]([C@H]1CC[C@H](C(=O)O)CC1)C[C@H]2NC(=O)[C@@]1(C)COc2cc3c(cc21)OC(F)(F)O3` [Example 155, trans-4-[(2R,4R)-4-{[(7R)-2,2-difluoro-7-methyl-6,7-dihydro-2H-furo[2,3-f][1,3]benzodioxole-7-carbonyl]amino}-7-methoxy-3,4-dihydro-2H-1-benzopyran-2-yl]cyclohexane-1-carboxylic acid], for which, in test [1], the pEC50 is 7.70 and the “Maximum % activity (%)” value is 102%. Moreover, in test [2], the pEC50 was 7.04 and the “Maximum % activity (%)” value turned out to be 137%.
In the same order, the values of `COc1ccc2c(c1)O[C@@H](c1ccc(C(=O)O)nc1)C[C@H]2NC(=O)[C@@]1(C)COc2cc3c(cc21)OC(F)(F)O3` [Example 146, 5-[(2R,4R)-4-{[(7R)-2,2-difluoro-7-methyl-6,7-dihydro-2H-furo[2,3-f][1,3]benzodioxole-7-carbonyl]amino}-7-methoxy-3,4-dihydro-2H-1-benzopyran-2-yl]pyridine-2-carboxylic acid] are 6.80, 89%, 6.47 and 153%.

What is called pEC50 is the EC50 on a negative log10 scale, so that one unit is a factor of ten.

The record behind these values is US9840513B2 (AbbVie S.à.r.l., priority 2015, dated 2017).
